Patent publication US20070128217A1 (priority 2003, published 2007)

Assays:
[1] = tested on: control sera (pooled serum of ten healthy LUMC hospital workers; commercial negative donor pooled serum from the Dutch bloodbank); type: binding, human; parameters: Binding of Control serum LUMC to linear peptides / Binding of Control serum Blood-bank to linear peptides / Binding of Control serum LUMC to looped peptides / Binding of Control Serum Blood-Bank to Looped peptides / Binding of Control serum LUMC to linear peptides of the protein M of SARS-CoV Urbani / Binding of Control serum Blood-bank to linear peptides of the protein M of SARS-CoV Urbani / Binding of Control serum LUMC to looped peptides of the protein M of SARS-CoV Urbani / Binding of Control Serum Blood-Bank to Looped peptides of the protein M of SARS-CoV Urbani: unit not given here
[2] = tested on: recombinant human anti-SARS-CoV antibody 03-018; type: binding; parameters: Binding of antibody 03-018 to linear peptides of the N protein of SARS-CoV Urbani / Binding of antibody 03-018 to looped/cyclic peptides of the N protein of SARS-CoV Urbani: unit not given here
[3] = tested on: rabbit serum obtained by immunizing a rabbit with the SARS-CoV strain Frankfurt 1; type: binding; parameters: Binding of a rabbit serum to linear peptides / Binding of a rabbit serum to looped peptides / Rabbit serum linear peptides / Rabbit serum looped peptides / Binding of a rabbit serum to linear peptides of protein N of SARS-CoV Urbani (Rabbit serum linear peptides) / Binding of a rabbit serum to looped/cyclic peptides of protein N of SARS-CoV Urbani (Rabbit serum looped peptides): unit not given here
[4] = tested on: antibodies in sera from SARS patients (sera 1a, 1b, 2, 6, 37, 62, London, SARS-yellow, SARS-green); type: binding, human; parameters: Binding of serum 6 to linear peptides of protein X1 of SARS-CoV Urbani / Binding of serum 37 to linear peptides of protein X1 of SARS-CoV Urbani / Binding of serum 6 to looped/cyclic peptide (PEPSCAN-ELISA) / Binding of serum 37 to looped/cyclic peptide (PEPSCAN-ELISA) / Binding of serum 37 to looped/cyclic peptides of protein X1 of SARS-CoV Urbani / Binding of serum 6 to linear peptides of protein X2 / Binding of serum 37 to linear peptides of protein X2 / Binding of serum 37 to looped/cyclic peptides of protein X2 of SARS-CoV Urbani / Binding of serum 6 to linear peptides of protein M of SARS-CoV Urbani / Binding of serum 37 to linear peptides of protein M of SARS-CoV Urbani / Binding of serum 6 to looped/cyclic peptides of protein M of SARS-CoV Urbani / Binding of serum 37 to looped/cyclic peptides of protein M of SARS-CoV Urbani / Binding of serum 6 to linear peptides of protein X3 of SARS-CoV Urbani / Binding of serum 37 to linear peptides of protein X3 of SARS-CoV Urbani / Binding of serum 37 to looped/cyclic peptides of protein X3 of SARS-CoV Urbani / Binding of serum 6 to linear peptides of protein X4 of SARS-CoV Urbani / Binding of serum 37 to linear peptides of protein X4 of SARS-CoV Urbani / Binding of serum 37 to looped/cyclic peptides of protein X4 of SARS-CoV Urbani / Binding of serum 6 to linear peptides of protein X5 of SARS-CoV Urbani / Binding of serum 37 to linear peptides of protein X5 of SARS-CoV Urbani / Binding of serum 37 to looped/cyclic peptides of protein X5 of SARS-CoV Urbani / Binding of serum 6 to linear peptides of protein N of SARS-CoV Urbani / Binding of serum 37 to linear peptides of protein N of SARS-CoV Urbani / Binding of serum 6 to linear peptide (PEPSCAN-ELISA) / Binding of serum 1a to looped/cyclic peptides of protein N of SARS-CoV Urbani / Binding of serum 1b to looped/cyclic peptides of protein N of SARS-CoV Urbani / Binding of serum 2 to looped/cyclic peptides of protein N of SARS-CoV Urbani / Binding of serum 6 to looped/cyclic peptides of protein N of SARS-CoV Urbani / Binding of serum 37 to looped/cyclic peptides of protein N of SARS-CoV Urbani / Binding of serum 62 to looped/cyclic peptides of protein N of SARS-CoV Urbani / Binding of serum London to looped/cyclic peptides of protein N of SARS-CoV Urbani / Binding of serum SARS-green to looped/cyclic peptides of protein N of SARS-CoV Urbani: unit not given here

Row | Sequence | Binding of antibody 03-018 to linear peptides of the N protein of SARS-CoV Urbani [2] | Binding of antibody 03-018 to looped/cyclic peptides of the N protein of SARS-CoV Urbani [2] | Binding of a rabbit serum to linear peptides of protein N of SARS-CoV Urbani (Rabbit serum linear peptides) [3] | Binding of a rabbit serum to looped/cyclic peptides of protein N of SARS-CoV Urbani (Rabbit serum looped peptides) [3] | Binding of serum 1a to linear peptides of protein N of SARS-CoV Urbani [4] | Binding of serum 1a to looped/cyclic peptides of protein N of SARS-CoV Urbani [4] | Binding of serum 1b to linear peptides of protein N of SARS-CoV Urbani [4] | Binding of serum 1b to looped/cyclic peptides of protein N of SARS-CoV Urbani [4] | Binding of serum 2 to linear peptides of protein N of SARS-CoV Urbani [4] | Binding of serum 2 to looped/cyclic peptides of protein N of SARS-CoV Urbani [4] | Binding of serum 6 to linear peptides of protein N of SARS-CoV Urbani [4] | Binding of serum 6 to looped/cyclic peptides of protein N of SARS-CoV Urbani [4] | Binding of serum 37 to linear peptides of protein N of SARS-CoV Urbani [4] | Binding of serum 37 to looped/cyclic peptides of protein N of SARS-CoV Urbani [4] | Binding of serum 62 to linear peptides of protein N of SARS-CoV Urbani [4] | Binding of serum 62 to looped/cyclic peptides of protein N of SARS-CoV Urbani [4] | Binding of serum London to linear peptides of protein N of SARS-CoV Urbani [4] | Binding of serum London to looped/cyclic peptides of protein N of SARS-CoV Urbani [4] | Binding of serum SARS-green to linear peptides of protein N of SARS-CoV Urbani [4] | Binding of serum SARS-green to looped/cyclic peptides of protein N of SARS-CoV Urbani [4] | further results
1 | TALTQHGKEELRFPR | 0.1 | 0.3 | 0.1 | 0.4 | 0.2 | 0.4 | 0.1 | 0.3 | 0.2 | 0.6 | 0.1 | 0.5 | 0.7 | 0.8 | 0.6 | 0.6 | 0.5 | 0.6 | 0.4 | 0.7 | Binding of Control Serum Blood-Bank to Looped peptides [1]: 0.8; Binding of Control serum Blood-bank to linear peptides [1]: 0.8; Binding of Control serum LUMC to linear peptides [1]: 0.6; Binding of Control serum LUMC to looped peptides [1]: 0.8; Binding of serum SARS-yellow to linear peptides of protein N of SARS-CoV Urbani [4]: 0.5; Binding of serum SARS-yellow to looped/cyclic peptides of protein N of SARS-CoV Urbani [4]: 0.7
2 | TASWFTALTQHGKEE | 0.1 | 0.2 | 0.1 | 0.7 | 0.2 | 0.2 | 0.1 | 0.1 | 0.1 | 0.1 | 0.1 | 0.1 | 0.7 | 0.4 | 0.4 | 0.2 | 0.4 | 0.3 | 0.3 | 0.1 | Binding of Control Serum Blood-Bank to Looped peptides [1]: 0.4; Binding of Control serum Blood-bank to linear peptides [1]: 0.6; Binding of Control serum LUMC to linear peptides [1]: 0.5; Binding of Control serum LUMC to looped peptides [1]: 0.3; Binding of serum SARS-yellow to linear peptides of protein N of SARS-CoV Urbani [4]: 0.5; Binding of serum SARS-yellow to looped/cyclic peptides of protein N of SARS-CoV Urbani [4]: 0.2
3 | TDEAQPLPQRQKKQP | 0.1 | 0.1 | 0.1 | 0.0 | 0.2 | 0.2 | 0.2 | 0.0 | 0.3 | 0.2 | 0.2 | 0.1 | 0.7 | 0.1 | 0.7 | 0.0 | 1.2 | 0.1 | 0.7 | 0.0 | Control Serum Blood-Bank Looped peptides [1]: 0.5; Control serum Blood-bank linear peptides [1]: 0.7; Control serum LUMC linear peptides [1]: 0.6; Control serum LUMC looped peptides [1]: 0.2; Binding of serum SARS-yellow to linear peptides of protein N of SARS-CoV Urbani [4]: 1.0; Binding of serum SARS-yellow to looped/cyclic peptides of protein N of SARS-CoV Urbani [4]: 0.1
